According to article PMC10840383, “Clinical features, functional consequences, and rescue pharmacology of missense GRID1 and GRID2 human variants” (Human Molecular Genetics, 2023):
Positions count from the first letter of the chain named. “Also recorded” adds a separate entry of the source. Read-outs that look alike come from different tables or passages of the source.

Key:
Type in all cases: cell-based
GluD2-A654D = molecular target: T1, GluD2-A654D (Rattus norvegicus, UniProt Q63226, A654D); assay: TEVC of constitutive current, Xenopus oocytes expressing GluD2-A654D
T1 construct: expressed in transfected cells; host or cells: Xenopus laevis oocytes injected with cRNA
T1 sequence (Q63226 24-1007 A654D): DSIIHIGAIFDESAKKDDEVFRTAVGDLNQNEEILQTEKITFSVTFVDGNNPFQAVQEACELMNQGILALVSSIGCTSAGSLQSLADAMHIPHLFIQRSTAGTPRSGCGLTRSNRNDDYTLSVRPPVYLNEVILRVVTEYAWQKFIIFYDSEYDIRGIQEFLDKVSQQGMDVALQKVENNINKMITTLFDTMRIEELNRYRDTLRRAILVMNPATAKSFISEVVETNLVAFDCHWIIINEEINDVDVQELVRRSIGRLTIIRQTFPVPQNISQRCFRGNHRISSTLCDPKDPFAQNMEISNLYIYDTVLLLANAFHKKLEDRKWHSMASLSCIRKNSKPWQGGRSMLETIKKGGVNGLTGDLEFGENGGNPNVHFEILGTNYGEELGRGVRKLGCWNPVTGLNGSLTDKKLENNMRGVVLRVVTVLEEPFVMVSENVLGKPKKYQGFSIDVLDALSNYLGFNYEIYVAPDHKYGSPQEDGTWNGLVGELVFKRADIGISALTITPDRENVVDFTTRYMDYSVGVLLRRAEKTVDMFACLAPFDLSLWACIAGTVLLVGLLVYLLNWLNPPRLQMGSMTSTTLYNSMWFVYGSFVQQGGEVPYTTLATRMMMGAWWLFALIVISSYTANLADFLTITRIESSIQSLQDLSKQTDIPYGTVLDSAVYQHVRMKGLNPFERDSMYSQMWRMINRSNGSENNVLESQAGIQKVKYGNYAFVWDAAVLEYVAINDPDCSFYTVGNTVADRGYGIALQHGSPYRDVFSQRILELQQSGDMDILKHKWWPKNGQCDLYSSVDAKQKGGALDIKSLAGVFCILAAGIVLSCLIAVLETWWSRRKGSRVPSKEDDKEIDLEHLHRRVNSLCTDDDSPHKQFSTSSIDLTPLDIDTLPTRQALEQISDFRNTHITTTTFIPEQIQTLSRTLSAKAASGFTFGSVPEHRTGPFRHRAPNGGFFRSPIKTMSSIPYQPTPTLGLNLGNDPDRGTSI

GluD1-A650T = molecular target: T2, GluD1-A650T (Homo sapiens, UniProt Q9ULK0, A650T); assay: TEVC of constitutive current, Xenopus oocytes expressing GluD1-A650T; conditions: for EC50: modulation of constitutive current
T2 construct: expressed in transfected cells; host or cells: Xenopus laevis oocytes injected with cRNA
T2 sequence (Q9ULK0 21-1009 A650T): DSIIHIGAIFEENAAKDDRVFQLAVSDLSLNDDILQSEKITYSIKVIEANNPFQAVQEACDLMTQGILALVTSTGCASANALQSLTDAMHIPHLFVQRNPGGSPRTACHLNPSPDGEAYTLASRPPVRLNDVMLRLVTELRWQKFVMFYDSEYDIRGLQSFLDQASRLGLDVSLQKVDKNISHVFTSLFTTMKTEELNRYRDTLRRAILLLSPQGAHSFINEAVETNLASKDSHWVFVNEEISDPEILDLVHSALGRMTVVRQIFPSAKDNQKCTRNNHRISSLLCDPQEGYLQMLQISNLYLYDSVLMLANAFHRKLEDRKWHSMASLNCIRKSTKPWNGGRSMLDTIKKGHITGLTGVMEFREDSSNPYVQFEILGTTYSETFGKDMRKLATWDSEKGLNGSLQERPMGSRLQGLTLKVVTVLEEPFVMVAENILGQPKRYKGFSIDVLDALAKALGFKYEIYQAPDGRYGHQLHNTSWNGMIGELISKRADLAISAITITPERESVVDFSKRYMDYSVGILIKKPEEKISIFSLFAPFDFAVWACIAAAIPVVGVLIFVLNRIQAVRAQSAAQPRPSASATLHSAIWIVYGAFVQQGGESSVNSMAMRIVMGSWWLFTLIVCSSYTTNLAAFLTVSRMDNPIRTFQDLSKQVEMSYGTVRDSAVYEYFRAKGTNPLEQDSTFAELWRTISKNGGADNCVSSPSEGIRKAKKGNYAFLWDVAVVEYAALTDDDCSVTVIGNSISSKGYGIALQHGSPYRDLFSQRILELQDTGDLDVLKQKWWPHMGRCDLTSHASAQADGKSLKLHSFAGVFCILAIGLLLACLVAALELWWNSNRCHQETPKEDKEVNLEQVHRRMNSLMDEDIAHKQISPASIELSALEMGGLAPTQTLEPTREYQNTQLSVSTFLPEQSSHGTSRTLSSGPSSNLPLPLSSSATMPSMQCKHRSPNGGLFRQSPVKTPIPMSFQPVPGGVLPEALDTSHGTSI

GluD2-A654T = molecular target: T3, GluD2-A654T (Rattus norvegicus, UniProt Q63226, A654T); assay: TEVC of constitutive current, Xenopus oocytes expressing GluD2-A654T (lurcher)
T3 construct: expressed in transfected cells; host or cells: Xenopus laevis oocytes injected with cRNA
T3 sequence (Q63226 24-1007 A654T): T1 sequence (Q63226 24-1007 A654D) with D631T

[1] = normalized to NMDG+ − Na+ difference current
[2] = 10 mM D-serine, positive = increase, negative = decrease of activity
[3] = percent of constitutive leak current (NMDG+/Na+ difference current)
[4] = inhibition of constitutive current, read-out: Memantine IC50
[5] = 100 μM pentamidine, positive = increase, negative = decrease of activity

In the case of [Ca+2] [Ca^2+], the “Effect on constitutive current, in words” value (GluD2-A654D) is reported as “weak inhibitor; also recorded: modestly inhibited”, the EC50 (GluD2-A654D; modulation of constitutive current, inhibited by Ca2+ (not potentiated), read-out: Ca2+ EC50 [95% CI]) is reported as 170 µM and the “Ca2+ % Max (NMDG+ − Na+) Mean ± SEM” value (GluD2-A654D; [1]) is reported as 82 ± 10 (12) %. For the same molecule, the “Ca2+ EC50 A654T/EC50 variant” value (GluD2-A654D; ratio) was 0.88, the “Effect on constitutive current, in words” value (GluD1-A650T) was “modestly inhibited” and the EC50 (GluD1-A650T; inhibited by Ca2+ (not potentiated), read-out: Ca2+ EC50 [95% CI]) was 290 µM. For the same molecule, the “Ca2+ % Max (NMDG+ − Na+) Mean ± SEM” value (GluD1-A650T; [1]) was 65 ± 3 (10) %, the “Ca2+ EC50 of the relation Ca2+ concentration vs D-serine IC50” value (GluD2-A654T; Hill fit, Fig. S7A) was 590 µM and the “Hill slope of the relation Ca2+ concentration vs D-serine IC50” value (GluD2-A654T; Hill fit, Fig. S7A) was 1.1. The “Ca2+ % Max (NMDG+ − Na+) Mean ± SEM” value (GluD2-A654T; [1]) was 299 ± 5.8 (32) %, the EC50 (GluD2-A654T; potentiation of constitutive current, read-out: Ca2+ EC50 [95% CI]) was 150 µM and the “Ca2+ EC50 A654T/EC50 variant” value (GluD2-A654T; ratio) was 1.0.
With N[C@H](CO)C(=O)O [D-serine] the “Effect on constitutive current, in words” value (GluD2-A654D) was “little effect; also recorded: near complete loss of D-serine potency”, the “D-Serine effect (Baseline −10 mM D-Serine)” value (shortened to “D-Serine effect”) (GluD2-A654D; [2]) was −29 ± 10 (14) nA and the “D-serine % Max (NMDG+ − Na+) Mean ± SEM” value (GluD2-A654D; [3]) was 85 ± 2.6 (15) %. The “Effect on constitutive current, in words” value (GluD1-A650T) was “modestly potentiated; also recorded: slightly potentiated”, the “D-Serine effect” value (GluD1-A650T; [2]) was 810 ± 130 (12) nA and the “D-serine % Max (NMDG+ − Na+) Mean ± SEM” value (GluD1-A650T; [3]) was 120 ± 1.8 (11) %. For the same molecule, the EC50 (GluD1-A650T; read-out: D-serine EC50 [95% CI], potentiated by D-serine (not inhibited)) was 130 µM, the “D-serine Hill slope” value (GluD2-A654T; 1 mM Ca2+, Fig. S7B) was 2.5 and the “D-serine Maximum” value (GluD2-A654T; 1 mM Ca2+, Fig. S7B) was 73%. For the same molecule, the “Reduction of maximum possible activity (Na+ −NMDG+ difference current) by D-serine” value (GluD2-A654T; 10 mM D-serine) was ~ 50%, the “D-Serine effect” value (GluD2-A654T; [2]) was −1000 ± 130 (14) nA and the “D-serine % Max (NMDG+ − Na+) Mean ± SEM” value (GluD2-A654T; [3]) was 51 ± 1.3 (32) %.
With CC12CC3CC(C)(C1)CC(N)(C3)C2 [Memantine, memantine] the IC50 (GluD2-A654D; [4]) was 55 µM, the IC50 (GluD1-A650T; [4]) was greater than 300 µM and the IC50 (GluD2-A654T; [4]) was 89 µM.
N=C(N)c1ccc(OCCCCCOc2ccc(C(=N)N)cc2)cc1 [Pentamidine, pentamidine] was tested, and the “Pentamidine effect (Baseline −100 μM Pentamidine)” value (shortened to “Pentamidine effect”) (GluD2-A654D; [5]) was −700 ± 160 (14) nA, the IC50 (GluD2-A654D; read-out: Pentamidine IC50) was 3.7 µM and the “Pentamidine effect” value (GluD1-A650T; [5]) was −1090 ± 200 (12) nA. For the same molecule, the IC50 (GluD1-A650T; read-out: Pentamidine IC50) was 20 µM, the “Pentamidine effect” value (GluD2-A654T; [5]) was −930 ± 130 (14) nA and the IC50 (GluD2-A654T; read-out: Pentamidine IC50) was 9.6 µM.
